The source of these data is article PMC8286840, “Identifying SARS-CoV-2 antiviral compounds by screening for small molecule inhibitors of Nsp3 papain-like protease” (Biochemical Journal, 2021).

Structures can show the parent of a compound that is named as a salt. Where two headings read alike, the source gives them in different places.

For assay [1], the target named is T1, SARS-CoV-2 PLpro (nsp3 1564–1878) (Severe acute respiratory syndrome coronavirus 2, UniProt P0DTD1). Nature of the assay: biochemical. As to conditions: low concentration screen, read-out: % of control remaining. Further details: FRET-quenched peptide (Pro3) cleavage by PLpro, 10 min pre-incubation, slope over 20 min, normalised to no-compound control.
The target of assay [2] is T1, SARS-CoV-2 PLpro (nsp3 1564–1878). As to the kind of experiment: biochemical. As to conditions: high concentration screen, read-out: % of control remaining. Further details: FRET-quenched peptide (Pro3) cleavage by PLpro, 10 min pre-incubation, slope over 20 min, normalised to no-compound control.

As to `CCCCCCCCCCCC1=C(O)C(=O)C=C(O)C1=O` [Embelin], the remaining activity at 1.25 µM in assay [1] (Well no.=3273) is 105%; in assay [1] (Well no.=6494), 95.2%. In addition, the remaining activity at 3.75 µM in assay [2] (Well no.=3273) came to 107%; in assay [2] (Well no.=6494), 88.6%.
As to `CC[C@H]1CN2CCc3cc(OC)c(OC)cc3[C@@H]2C[C@@H]1C[C@H]1NCCc2cc(OC)c(OC)cc21` [Emetine dihydrochloride hydrate], the remaining activity at 1.25 µM in assay [1] (Well no.=646) is 104%. Also, the remaining activity at 3.75 µM in assay [2] (Well no.=646) came out at 103%.
As for `CC(C)C[C@H]1C(=O)O[C@H](Cc2ccc(N3CCOCC3)cc2)C(=O)N(C)[C@@H](CC(C)C)C(=O)O[C@H](C)C(=O)N(C)[C@@H](CC(C)C)C(=O)O[C@H](Cc2ccc(N3CCOCC3)cc2)C(=O)N(C)[C@@H](CC(C)C)C(=O)O[C@H](C)C(=O)N1C` [Emodepside], the remaining activity at 1.25 µM in assay [1] (Well no.=8506) was determined as 100%. Also, in assay [2] (Well no.=8506), the remaining activity at 3.75 µM is 100%.
On to `Cc1cc(O)c2c(c1)C(=O)c1cc(O)cc(O)c1C2=O` [Emodin], for which the remaining activity at 1.25 µM was 98.9% in assay [1] (Well no.=749) and 92% in assay [1] (Well no.=3282). The remaining activity at 3.75 µM is 96.3% in assay [2] (Well no.=749) and 93.4% in assay [2] (Well no.=3282).
Turning to `OC[C@H]1O[C@@H](c2ccc(Cl)c(Cc3ccc(O[C@H]4CCOC4)cc3)c2)[C@H](O)[C@@H](O)[C@@H]1O` [Empagliflozin (BI 10773)], the remaining activity at 1.25 µM in assay [1] (Well no.=8724) turned out to be 98.6%. For the same compound, the remaining activity at 3.75 µM in assay [2] (Well no.=8724) amounted to 91.3%.
For `C[C@H](NC(=O)C(=O)Nc1ccccc1C(C)(C)C)C(=O)N[C@@H](CC(=O)O)C(=O)COc1c(F)c(F)cc(F)c1F` [Emricasan], the remaining activity at 1.25 µM in assay [1] (Well no.=7118) came to 95.7%. The remaining activity at 3.75 µM in assay [2] (Well no.=7118) stood at 95.9%.
Take `Nc1nc(=O)n([C@@H]2CS[C@H](CO)O2)cc1F` [Emtricitabine]: the remaining activity at 1.25 µM in assay [1] (Well no.=1733) worked out at 100%. Besides, the remaining activity at 3.75 µM in assay [2] (Well no.=1733) is 100%.
Take `CCOC(=O)[C@H](CCc1ccccc1)N[C@@H](C)C(=O)N1CCC[C@H]1C(=O)O` [Enalapril (maleate)]: the remaining activity at 1.25 µM in assay [1] (Well no.=7638) amounted to 93.9%. For the same compound, the remaining activity at 3.75 µM in assay [2] (Well no.=7638) is 94.6%.
Consider `CCOC(=O)[C@H](CCc1ccccc1)N[C@@H](C)C(=O)N1CCC[C@H]1C(=O)O` [Enalapril], for which the remaining activity at 1.25 µM in assay [1] (Well no.=2024) is 93.5%. Besides, the remaining activity at 3.75 µM in assay [2] (Well no.=2024) was found to be 102%.
As for `C[C@H](N[C@@H](CCc1ccccc1)C(=O)O)C(=O)N1CCC[C@H]1C(=O)O` [Enalaprilat (dihydrate)], the remaining activity at 1.25 µM in assay [1] (Well no.=7842) is 94.7%. Besides, in assay [2] (Well no.=7842), the remaining activity at 3.75 µM worked out at 97.1%.
In the case of `C[C@H](N[C@@H](CCc1ccccc1)C(=O)O)C(=O)N1CCC[C@H]1C(=O)O` [Enalaprilat Dihydrate], the remaining activity at 1.25 µM in assay [1] (Well no.=8094) was determined as 96.7%. Moreover, in assay [2] (Well no.=8094), the remaining activity at 3.75 µM turned out to be 98.4%.
Regarding `C[C@H](N[C@@H](CCc1ccccc1)C(=O)O)C(=O)N1CCC[C@H]1C(=O)O` [Enalaprilat], the remaining activity at 1.25 µM in assay [1] (Well no.=1900) amounted to 95.1%; in assay [1] (Well no.=5968) it was 99.8%. In addition, the remaining activity at 3.75 µM in assay [2] (Well no.=1900) turned out to be 93.8%; in assay [2] (Well no.=5968), 98.2%.
On to `CCCCCCCCCCCCCCCCOCC(COP(=O)([O-])OCC[N+](C)(C)C)OC(C)=O` (stereo not drawn) [Enantio-PAF C16], for which the remaining activity at 1.25 µM in assay [1] (Well no.=4455) amounted to 98.4%. In addition, in assay [2] (Well no.=4455), the remaining activity at 3.75 µM came out at 100%.
Take `CC(C)(O)CNc1nc(Nc2ccnc(C(F)(F)F)c2)nc(-c2cccc(C(F)(F)F)n2)n1` [Enasidenib (AG-221)]: the remaining activity at 1.25 µM in assay [1] (Well no.=8582) came out at 101%. The remaining activity at 3.75 µM in assay [2] (Well no.=8582) turned out to be 101%.
Turning to `NC(=O)[C@H](Cc1ccccc1)NC(=O)[C@H](Cc1c[nH]c2ccccc12)NC(=O)[C@@H]1CCCN1C(=O)[C@@H](N)Cc1ccc(O)cc1` [Endomorphin 1], in assay [1] (Well no.=7901), the remaining activity at 1.25 µM stood at 102%. Moreover, the remaining activity at 3.75 µM in assay [2] (Well no.=7901) is 97.8%.
Consider `O=C(O)[C@@H]1[C@H](C(=O)O)[C@H]2CC[C@@H]1O2` [Endothall], for which, in assay [1] (Well no.=701), the remaining activity at 1.25 µM turned out to be 97.9%. Moreover, the remaining activity at 3.75 µM in assay [2] (Well no.=701) came out at 97.8%.
For `CCn1cc(C(=O)O)c(=O)c2cc(F)c(N3CCNCC3)nc21` [Enoxacin], the remaining activity at 1.25 µM in assay [1] (Well no.=2026) is 103%. Besides, the remaining activity at 3.75 µM in assay [2] (Well no.=2026) amounted to 106%.
As to `CSc1ccc(C(=O)c2[nH]c(=O)[nH]c2C)cc1` [Enoximone], in assay [1] (Well no.=406), the remaining activity at 1.25 µM amounted to 103%. Further, in assay [2] (Well no.=406), the remaining activity at 3.75 µM came out at 102%.
Regarding `CCN1CCN(c2cc3c(cc2F)c(=O)c(C(=O)O)cn3C2CC2)CC1` [Enrofloxacin], the remaining activity at 1.25 µM in assay [1] (Well no.=2028) was found to be 104%. For the same compound, the remaining activity at 3.75 µM in assay [2] (Well no.=2028) amounted to 104%.
Take `CCN(CC)C(=O)/C(C#N)=C/c1cc(O)c(O)c([N+](=O)[O-])c1` [Entacapone]: the remaining activity at 1.25 µM in assay [1] (Well no.=1888) is 96.2%. The remaining activity at 3.75 µM in assay [2] (Well no.=1888) stood at 93%.
As for `C=C1[C@H](CO)[C@@H](O)C[C@@H]1n1cnc2c(=O)[nH]c(N)nc21` [Entecavir hydrate], in assay [1] (Well no.=5147), the remaining activity at 1.25 µM came out at 93.9%. In addition, the remaining activity at 3.75 µM in assay [2] (Well no.=5147) stood at 95.5%.
On to `Cn1cc(C2=C(c3cn(C4CCN(Cc5ccccn5)CC4)c4ccccc34)C(=O)NC2=O)c2ccccc21` [Enzastaurin (LY317615)], for which the remaining activity at 1.25 µM in assay [1] (Well no.=5003) came out at 93%. Besides, the remaining activity at 3.75 µM in assay [2] (Well no.=5003) is 87.9%.
In the case of `NS(=O)(=O)NCCNc1nonc1/C(=N/O)Nc1ccc(F)c(Br)c1` [Epacadostat (INCB024360)], the remaining activity at 1.25 µM in assay [1] (Well no.=8722) is 99.6%. In addition, the remaining activity at 3.75 µM in assay [2] (Well no.=8722) was determined as 95.9%.
In the case of `NS(=O)(=O)NCCNc1nonc1/C(=N/O)Nc1ccc(F)c(Br)c1` [Epacadostat], in assay [1] (Well no.=8415), the remaining activity at 1.25 µM is 99.9%. The remaining activity at 3.75 µM in assay [2] (Well no.=8415) is 95.7%.
Consider `CC(/C=C1\SC(=S)N(CC(=O)O)C1=O)=C\c1ccccc1` [Epalrestat], for which, in assay [1] (Well no.=5046), the remaining activity at 1.25 µM came to 100%. For the same compound, the remaining activity at 3.75 µM in assay [2] (Well no.=5046) worked out at 104%.
As to `C[C@]12CC[C@H](O)C[C@@H]1CC[C@@H]1[C@@H]2CC[C@]2(C)C(=O)CC[C@@H]12` [Epiandrosterone], the remaining activity at 1.25 µM in assay [1] (Well no.=6441) was found to be 103%. Further, in assay [2] (Well no.=6441), the remaining activity at 3.75 µM worked out at 103%.
For `COc1cc2c(cc1OC)-c1cc3ccc4c(c3c[n+]1CC2)OCO4` [Epiberberine (chloride)], the remaining activity at 1.25 µM in assay [1] (Well no.=8339) is 91.9%. Besides, the remaining activity at 3.75 µM in assay [2] (Well no.=8339) turned out to be 91.9%.
Turning to `CC(C)C[C@H](NC(=O)[C@H](O)[C@H](N)Cc1ccccc1)C(=O)O` [Epibestatin hydrochloride], the remaining activity at 1.25 µM in assay [1] (Well no.=692) came out at 96.8%. Also, the remaining activity at 3.75 µM in assay [2] (Well no.=692) is 93.6%.
In the case of `O=C(O[C@@H]1Cc2c(O)cc(O)cc2O[C@@H]1c1cc(O)c(O)c(O)c1)c1cc(O)c(O)c(O)c1` [Epigallocatechin gallate], in assay [1] (Well no.=3895), the remaining activity at 1.25 µM came to 98.4%. In assay [2] (Well no.=3895), the remaining activity at 3.75 µM was determined as 101%.
